According to US12440541B2, “Methods for expanding and activating γσ T cells for the treatment of cancer and related malignancies” (priority 2017, dated 2025):

Tested on: γδ T cells
Assay: γδ T cell expansion in defined medium
Type: cell-based, human
Settings: defined medium with IL-2, IL-15, Amphotericin B

O=P(O)(O)C(O)(Cn1ccnc1)P(=O)(O)O [Zoledronate, Zoledronic acid]
fold increase in absolute number of γδ T cells (Donor 20, Day 0 to Day 17): 3,350 fold
fold increase in absolute number of γδ T cells (Donor 20, Day 0 to Day 22): 11,060 fold
fold increase in absolute number of γδ T cells (Donor 20, Day 0 to Day 29): 31,666 fold
fold increase in absolute number of γδ T cells (Donor 21, Day 0 to Day 17): 4,633 fold
fold increase in absolute number of γδ T cells (Donor 21, Day 0 to Day 22): 12,320 fold
fold increase in absolute number of γδ T cells (Donor 21, Day 0 to Day 29): 32,833 fold
